Assay results from US20110173718A1, “HERBICIDE TOLERANT PLANTS” (SYNGENTA CROP PROTECTION, INC., priority 2008, published 2011).
Blank lines part the entries; values can stand above or below the molecule they belong to.

How the values were obtained:
[1] = target: T1, Arabidopsis HST (Arabidopsis thaliana, UniProt Q1ACB3); test: HST total extraction (non TLC) assay, recombinant Arabidopsis HST from insect cells; assay type: biochemical
T1 construct: GST (factor Xa cleavage site) (N); made in house; host or cells: Sf9 insect cells (baculovirus, pAcG3X), membrane fraction
T1 sequence (Q1ACB3 70-386): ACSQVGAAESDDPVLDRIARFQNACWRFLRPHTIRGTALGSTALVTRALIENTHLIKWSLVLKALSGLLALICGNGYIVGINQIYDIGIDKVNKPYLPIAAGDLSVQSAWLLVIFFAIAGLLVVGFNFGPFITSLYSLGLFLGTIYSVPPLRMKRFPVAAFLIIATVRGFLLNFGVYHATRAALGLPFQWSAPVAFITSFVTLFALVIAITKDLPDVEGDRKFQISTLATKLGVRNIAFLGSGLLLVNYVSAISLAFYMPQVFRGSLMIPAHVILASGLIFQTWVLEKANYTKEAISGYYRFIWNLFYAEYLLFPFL

[2] = tested on: weeds; test: Glasshouse weed control, HST inhibitors alone and with A22, post-emergence; assay type: in vivo; conditions: 14 DAT, single replicate; for pest or weed control at 15.625 g/ha / pest or weed control at 62.5 g/ha / pest or weed control at 250 g/ha: 336 h, read-out: % control score, Obs
Method: (§1) In a further test, the results of which are depicted in tables 18 and 19, weed seeds are planted out in trays containing 50% peat/50% John Innes no. 3 soil and grown in the glass house at 24-27 C day; 18-21 C night and approximately a 15 h photoperiod. Humidity is ˜65% and light levels at bench level are up to 2 mmol/m^2. Again all spray chemicals are dissolved in 0.2% X77 surfactant and sprayed from a boom on a track sprayer moving at 2 mph with the nozzle set about 2 inches above the plant tops. The spray volume is […]. Sprays are carried out both pre-emergence and post-emergence over small plants at about 7-12 d post-emergence. Plants are assessed at 14 DAT with herbicidal damage scored on a scale from 0 to 100%. The HPPD inhibiting herbicide is compound A22 (4-hydroxy-3-[[2-(2-methoxyethoxy)methyl]-6-(trifluoromethyl)-3-pyridinylicarbonyl]-bicyclo[3.2.1]oct-3-en-2-one) which is sprayed at 2 g/ha both alone and in mixture with various HST herbicides. Results and spray rates are depicted in Tables 18 and 19. Again the Colby formula has been used to calculate synergy scores observed following treatment with the mixture based on the results obtained with the single components alone. Positive synergy is observed between the HPPD herbicide and a wide variety of HST inhibitor herbicides applied both pre and postemergence across a variety of weeds.

[3] = tested on: weeds; test: Glasshouse weed control, HST inhibitors alone and with A22, pre-emergence; assay type: in vivo; conditions: 14 DAT; for pest or weed control at 15.625 g/ha / pest or weed control at 62.5 g/ha / pest or weed control at 250 g/ha: 336 h
Method: as §1

Estimated IC50 (ppm) [1]: 38 ppm
SMILES: O=c1c(-c2c(F)ccc(F)c2Cl)c(O)c2nccnc2n1CC(F)(F)F [Compound 2.17]
pest or weed control at 15.625 g/ha ([2]; BRAPL, 15.625 g/ha alone): 1%
pest or weed control at 62.5 g/ha ([2]; BRAPL, 62.5 g/ha alone): 15%
pest or weed control at 250 g/ha ([2]; BRAPL, 250 g/ha alone): 50%
pest or weed control at 15.625 g/ha ([2]; PANMI, 15.625 g/ha alone): 0%
pest or weed control at 62.5 g/ha ([2]; PANMI, 62.5 g/ha alone): 10%
pest or weed control at 250 g/ha ([2]; PANMI, 250 g/ha alone): 55%
pest or weed control at 15.625 g/ha ([2]; SIDSP, 15.625 g/ha alone): 5%
pest or weed control at 62.5 g/ha ([2]; SIDSP, 62.5 g/ha alone): 15%
pest or weed control at 250 g/ha ([2]; SIDSP, 250 g/ha alone): 50%
pest or weed control at 15.625 g/ha ([2]; Digitaria sanguinalis, DIGSA, 15.625 g/ha alone): 0%
pest or weed control at 62.5 g/ha ([2]; Digitaria sanguinalis, DIGSA, 62.5 g/ha alone): 5%
pest or weed control at 250 g/ha ([2]; Digitaria sanguinalis, DIGSA, 250 g/ha alone): 50%
pest or weed control at 15.625 g/ha ([2]; Echinochloa crus-galli, ECHCG, 15.625 g/ha alone): 0%
pest or weed control at 62.5 g/ha ([2]; Echinochloa crus-galli, ECHCG, 62.5 g/ha alone): 5%
pest or weed control at 250 g/ha ([2]; Echinochloa crus-galli, ECHCG, 250 g/ha alone): 40%
pest or weed control at 15.625 g/ha ([2]; Setaria faberi, SETFA, 15.625 g/ha alone): 0%
pest or weed control at 62.5 g/ha ([2]; Setaria faberi, SETFA, 62.5 g/ha alone): 10%
pest or weed control at 250 g/ha ([2]; Setaria faberi, SETFA, 250 g/ha alone): 40%
pest or weed control at 15.625 g/ha ([3]; BRAPL, HST inhibitor rate 15.625 g/ha, read-out: BRAPL Obs, % control score): 0%
pest or weed control at 62.5 g/ha ([3]; BRAPL, HST inhibitor rate 62.5 g/ha, read-out: BRAPL Obs, % control score): 0%
pest or weed control at 250 g/ha ([3]; BRAPL, HST inhibitor rate 250 g/ha, read-out: BRAPL Obs, % control score): 2%
pest or weed control at 15.625 g/ha ([3]; PANMI, HST inhibitor rate 15.625 g/ha, read-out: PANMI Obs, % control score): 0%
pest or weed control at 62.5 g/ha ([3]; PANMI, HST inhibitor rate 62.5 g/ha, read-out: PANMI Obs, % control score): 0%
pest or weed control at 250 g/ha ([3]; PANMI, HST inhibitor rate 250 g/ha, read-out: PANMI Obs, % control score): 0%
pest or weed control at 15.625 g/ha ([3]; SIDSP, HST inhibitor rate 15.625 g/ha, read-out: SIDSP Obs, % control score): 0%
pest or weed control at 62.5 g/ha ([3]; SIDSP, HST inhibitor rate 62.5 g/ha, read-out: SIDSP Obs, % control score): 0%
pest or weed control at 250 g/ha ([3]; SIDSP, HST inhibitor rate 250 g/ha, read-out: SIDSP Obs, % control score): 0%
pest or weed control at 15.625 g/ha ([3]; Digitaria sanguinalis, DIGSA, HST inhibitor rate 15.625 g/ha, read-out: DIGSA Obs, % control score): 0%
pest or weed control at 62.5 g/ha ([3]; Digitaria sanguinalis, DIGSA, HST inhibitor rate 62.5 g/ha, read-out: DIGSA Obs, % control score): 0%
pest or weed control at 250 g/ha ([3]; Digitaria sanguinalis, DIGSA, HST inhibitor rate 250 g/ha, read-out: DIGSA Obs, % control score): 0%
pest or weed control at 15.625 g/ha ([3]; Echinochloa crus-galli, ECHCG, HST inhibitor rate 15.625 g/ha, read-out: ECHCG Obs, % control score): 0%
pest or weed control at 62.5 g/ha ([3]; Echinochloa crus-galli, ECHCG, HST inhibitor rate 62.5 g/ha, read-out: ECHCG Obs, % control score): 0%
pest or weed control at 250 g/ha ([3]; Echinochloa crus-galli, ECHCG, HST inhibitor rate 250 g/ha, read-out: ECHCG Obs, % control score): 10%
pest or weed control at 15.625 g/ha ([3]; Setaria faberi, SETFA, HST inhibitor rate 15.625 g/ha, read-out: SETFA Obs, % control score): 0%
pest or weed control at 62.5 g/ha ([3]; Setaria faberi, SETFA, HST inhibitor rate 62.5 g/ha, read-out: SETFA Obs, % control score): 0%
pest or weed control at 250 g/ha ([3]; Setaria faberi, SETFA, HST inhibitor rate 250 g/ha, read-out: SETFA Obs, % control score): 10%

SMILES: C#Cn1c(=O)c(-c2c(F)ccc(F)c2Cl)c(O)c2nccnc21 [Compound 2.18]
Estimated IC50 (ppm) [1]: 6 ppm
% control score, Obs ([2]; BRAPL, 15.625 g/ha alone): 5%
% control score, Obs ([2]; BRAPL, 62.5 g/ha alone): 60%
% control score, Obs ([2]; BRAPL, 250 g/ha alone): 80%
% control score, Obs ([2]; DIGSA, 15.625 g/ha alone): 1%
% control score, Obs ([2]; DIGSA, 62.5 g/ha alone): 30%
% control score, Obs ([2]; DIGSA, 250 g/ha alone): 50%
% control score, Obs ([2]; ECHCG, 15.625 g/ha alone): 2%
% control score, Obs ([2]; ECHCG, 62.5 g/ha alone): 40%
% control score, Obs ([2]; ECHCG, 250 g/ha alone): 70%
% control score, Obs ([2]; PANMI, 15.625 g/ha alone): 10%
% control score, Obs ([2]; PANMI, 62.5 g/ha alone): 65%
% control score, Obs ([2]; PANMI, 250 g/ha alone): 70%
% control score, Obs ([2]; SETFA, 15.625 g/ha alone): 10%
% control score, Obs ([2]; SETFA, 62.5 g/ha alone): 60%
% control score, Obs ([2]; SETFA, 250 g/ha alone): 85%
% control score, Obs ([2]; SIDSP, 15.625 g/ha alone): 15%
% control score, Obs ([2]; SIDSP, 62.5 g/ha alone): 60%
% control score, Obs ([2]; SIDSP, 250 g/ha alone): 70%
BRAPL Obs, % control score ([3]; BRAPL, HST inhibitor rate 15.625 g/ha): 0%
BRAPL Obs, % control score ([3]; BRAPL, HST inhibitor rate 62.5 g/ha): 10%
BRAPL Obs, % control score ([3]; BRAPL, HST inhibitor rate 250 g/ha): 40%
DIGSA Obs, % control score ([3]; DIGSA, HST inhibitor rate 15.625 g/ha): 0%
DIGSA Obs, % control score ([3]; DIGSA, HST inhibitor rate 62.5 g/ha): 0%
DIGSA Obs, % control score ([3]; DIGSA, HST inhibitor rate 250 g/ha): 0%
ECHCG Obs, % control score ([3]; ECHCG, HST inhibitor rate 15.625 g/ha): 0%
ECHCG Obs, % control score ([3]; ECHCG, HST inhibitor rate 62.5 g/ha): 20%
ECHCG Obs, % control score ([3]; ECHCG, HST inhibitor rate 250 g/ha): 20%
PANMI Obs, % control score ([3]; PANMI, HST inhibitor rate 15.625 g/ha): 0%
PANMI Obs, % control score ([3]; PANMI, HST inhibitor rate 62.5 g/ha): 0%
PANMI Obs, % control score ([3]; PANMI, HST inhibitor rate 250 g/ha): 50%
SETFA Obs, % control score ([3]; SETFA, HST inhibitor rate 15.625 g/ha): 0%
SETFA Obs, % control score ([3]; SETFA, HST inhibitor rate 62.5 g/ha): 20%
SETFA Obs, % control score ([3]; SETFA, HST inhibitor rate 250 g/ha): 25%
SIDSP Obs, % control score ([3]; SIDSP, HST inhibitor rate 15.625 g/ha): 0%
SIDSP Obs, % control score ([3]; SIDSP, HST inhibitor rate 62.5 g/ha): 30%
SIDSP Obs, % control score ([3]; SIDSP, HST inhibitor rate 250 g/ha): 30%
